From PMC7229044, “Triterpenoid acids isolated from Schinus terebinthifolia fruits reduce Staphylococcus aureus virulence and abate dermonecrosis” (Scientific Reports, 2020)
Values after ≈ are worked out from the molar mass of the structure shown. “Also recorded” adds a separate entry of the source.

What was measured:
[1] = system: S. aureus AH1263; LAC (agr I); experiment: Broth microdilution growth inhibition (MIC); type: cell-based, Staphylococcus aureus; conditions: for IC50: read-out: IC50 (growth)
Procedure: (§1) Fraction 430F-F5 and isolated compounds of S. terebinthifolia 1-3, were evaluated for minimum inhibitory concentrations (MICs) against the four agr groups, the biofilm test strain (UAMS-1) and NRS249 (for δ-toxin quantification experiments) following the Clinical Laboratory Standards Institute (CLSI) M100-S23 guidelines for microtiter broth dilution testing. Fraction, compounds 1-3 and vehicle were tested at a concentration range of 4 to 563 μM, using 2-fold serial dilution. The optical density (OD600nm) was measured with a BioTek Cytation 3 multimode plate reader, to calculate percent inhibition of growth. […] Control included the vehicle (DMSO) and antibiotic (Ampicillin, MP Biomedicals Inc). All tests were performed in triplicate and repeated using a new stock of bacteria on a separate day.

S. aureus NRS249 (agr I) = experiment: Broth microdilution growth inhibition (MIC); type: cell-based, Staphylococcus aureus; conditions: ND = not detected at 4–563 μM; for IC50: ≥50% growth inhibition; for MIC: ≥90% growth inhibition
Procedure: as §1

S. aureus UAMS-1 = experiment: Broth microdilution growth inhibition (MIC); type: cell-based, Staphylococcus aureus; conditions: ND = not detected at 4–563 μM; for IC50: UAMS1, ≥50% growth inhibition
Procedure: as §1

S. aureus UAMS-929 = experiment: Broth microdilution growth inhibition (MIC); type: cell-based, Staphylococcus aureus; conditions: for IC50: UAMS929, read-out: IC50 (growth)
Procedure: as §1

[2] = system: agr activity, AH1677 (agr I); experiment: microbe, parasite or virus in culture; type: cell-based; conditions: Staphylococcus aureus, 24 h, read-out: IC50 for quorum sensing inhibitory activity
Procedure: (§2) S. aureus agr reporter strains AH1677 (agr I), AH430 (agr II), AH1747 (agr III) and AH1872 (agr IV) were grown overnight in TSB supplemented with chloramphenicol at 37 °C while shaking at 200 rpm. Cultures of S. aureus were standardized by optical density (OD600nm) matching to a 0.5 McFarland standard to reach a final inoculum density in the wells of 5 × 10^5 CFU mL^−1 in TSB, supplemented with 10 μg/mL chloramphenicol. […] Black sided, 96-well, clear bottom, tissue-culture treated plates (Costar 3603) with final well volume of 200 μL were used for all agr inhibition assays. Plates were incubated in a humidified chamber at 37 °C while shaking at 260 rpm. After 24 hours, plates were removed and OD600 and fluorescence were measured by plate reader at an excitation of 493 nm and emission of 535 nm. All tests were performed in triplicate and repeated using a new stock of bacteria on a separate day.

[3] = system: agr activity, AH1747 (agr III); experiment: microbe, parasite or virus in culture; type: cell-based; conditions: Staphylococcus aureus, 24 h; for IC50: read-out: IC50 for quorum sensing inhibitory activity; for IC90: read-out: IC90 for quorum sensing inhibitory activity
Procedure: as §2

[4] = system: agr activity, AH1872 (agr IV); experiment: microbe, parasite or virus in culture; type: cell-based; conditions: Staphylococcus aureus, 24 h; for IC50: read-out: IC50 for quorum sensing inhibitory activity
Procedure: as §2

[5] = system: agr activity, AH430 (agr II); experiment: microbe, parasite or virus in culture; type: cell-based; conditions: Staphylococcus aureus, 24 h; for IC50: read-out: IC50 for quorum sensing inhibitory activity; for IC90: read-out: IC90 for quorum sensing inhibitory activity
Procedure: as §2

[6] = system: all S. aureus accessory gene regulator (agr) alleles; experiment: microbe, parasite or virus in culture; type: cell-based; conditions: Staphylococcus aureus, read-out: IC50 values for quorum sensing inhibition, range over all four agr types
Procedure: as §2

[7] = HaCaT cytotoxicity assay (LDH); type: cell-based; conditions: human, HaCaT keratinocyte cells, read-out: IC50 for cytotoxicity to HaCaTs
Procedure: The HaCaT cell line was maintained and cytotoxicity of compounds (1-3) were assessed using the LDH cytotoxicity assay as previously described. The Therapeutic Index (TI) was calculated as a ratio of the TD50 (Toxic dose for cytotoxicity at IC50) and ED50 (effective dose for quorum sensing inhibiton IC50): = TD50/ED50 . Cytotoxicity of supernatants was further evaluated using a viability/cytotoxicity assay and imaged with fluorescent microscopy as previously described. All tests were performed in triplicate and the full experiment was repeated on a separate day using fresh cell stock.

S. aureus UAMS-1 biofilm = experiment: Biofilm formation, human plasma protein-coated microtiter assay; type: cell-based, Staphylococcus aureus; conditions: crystal violet; for concentrations that reduced biofilm: for 2 and 3 bacterial growth also reduced
Procedure: All compounds were examined (2–281 μM) for impact on S. aureus biofilm formation using a human plasma protein-coated assay as previously described[49],[51],[52]. Additionally, to monitor for any growth impact in this assay, the optical density of planktonic cells in the biofilm wells was calculated by transferring the supernatant to a new 96-well plate and reading the OD600nm in a BioTek plate reader. S. aureus isolate UAMS-1 was used for the biofilm assay, and its isogenic sarA mutant (UAMS-929), which has a biofilm deficient phenotype, served as a positive control. All tests were performed in triplicate and repeated using a new stock of bacteria on a separate day.

MRSA (LAC, USA300) = experiment: Murine model of MRSA skin infection (dermonecrosis); type: in vivo; conditions: BALB/c mice, intradermal, 1×10^8 CFU LAC with single 50 µg dose at time of infection; vs DMSO vehicle
Source text: A previously described murine model of MRSA skin infection was used to determine the efficacy of each Schinus compound as an anti-infective[25]. All animal experiments described herein were approved by and conducted in accordance with the recommendations of the Animal Care and Use Committee at the University of Colorado Anschutz Medical Campus (IACUC protocol number 117217). One day prior to inoculation, the abdominal hair of 8 week old female BALB/c mice was shaved and chemically removed with topical application of Nair for 1 minute. LAC (USA300, AH1263) was grown in TSB media overnight at 37 °C in a shaking incubator (200 rpm). Overnight LAC culture was diluted 1:100 in fresh TSB media and allowed to grow to early log phase (~2 hr to OD600nm 0.5). Cells were washed in sterile PBS and resuspended to achieve an inoculum of 1×10^8 CFU. 50 μL inoculum suspensions containing 1×10^8 CFU LAC and 50 μg of each compound 1-3 (diluted in DMSO) or DMSO vehicle control were injected intradermally into the abdominal skin of each BALB/c mouse. Baseline body weights for the mice were taken prior to injection and each day following. For determination of lesion size, digital photos of skin lesions were taken with an iPhone camera and analyzed with ImageJ software for Mac. Inoculum CFU was verified by serial dilution, plating, and colony counting after overnight incubation of the plate.

[8] = system: S. aureus AH1747 (agr III); experiment: Broth microdilution growth inhibition (MIC); type: cell-based, Staphylococcus aureus; conditions: for IC50: ≥50% growth inhibition; for IC50 / MIC: ND = not detected at 4–563 μM; for MIC: ≥90% growth inhibition
Procedure: as §1

[9] = AH1263, LAC (agr I), ≥90% growth inhibition, ND = not detected at test range 4–563 μM
[10] = Staphylococcus aureus, UAMS1, ≥90% growth inhibition
[11] = UAMS-929, ≥90% growth inhibition, ND = not detected at 4–563 μM

Structure (SMILES) | MIC [1, 9] | MIC ([1]; Staphylococcus aureus) | IC50 ([1]; Staphylococcus aureus) | IC50 (S. aureus NRS249 (agr I); Staphylococcus aureus) | MIC (S. aureus NRS249 (agr I); Staphylococcus aureus) | IC50 (S. aureus UAMS-1; Staphylococcus aureus) | MIC (S. aureus UAMS-1; [10]) | MIC (S. aureus UAMS-1; ≥90% growth inhibition) | MIC (S. aureus UAMS-929; Staphylococcus aureus, UAMS929) | IC50 (S. aureus UAMS-929; Staphylococcus aureus) | IC50 [2] | IC50 [3] | IC90 [3] | IC50 [4] | IC50 [5] | IC90 [5] | IC50 [6] | IC50 [7] | concentrations that increased biofilm formation (S. aureus UAMS-1 biofilm) | concentrations that reduced biofilm (S. aureus UAMS-1 biofilm) | other results
CC(=CCCC(C)C1CCC2(C)C3=CCC4C(C)(C)C(=O)CCC4(C)C3CCC12C)C(=O)O (stereo not drawn) [Compound 2, 3-oxotirucalla-7,24Z-dien-26-oic acid] | 563 µM (≈ 256 µg/mL) | 563 µM (≈ 256 µg/mL) | 141 µM | 9 µM | 18 µM (≈ 8.18 µg/mL) | 35 µM | 70 µM (≈ 31.8 µg/mL) | 70 µM (≈ 31.8 µg/mL) | 70 µM (≈ 31.8 µg/mL) | 35 µM | 4 µM | 9 µM | 281 µM | 9 µM | 2 µM | 281 µM | 2 to 9 µM | 70 µM | 2 to 16 µM | ≥ 35 µM | MIC (S. aureus NRS249 (agr I)): 18 µM (≈ 8.18 µg/mL); MIC (S. aureus UAMS-929; [11]): 70 µM (≈ 31.8 µg/mL); dermonecrotic lesion / skin damage (MRSA (LAC, USA300)): reduced the dermonecrotic lesion area to nearly undetectable levels; also recorded: decreased MRSA-associated tissue damage to the limit of detection
CC1(C)CCC2(C(=O)O)CCC3(C)C(=CCC4C5(C)CCC(=O)C(C)(C)C5CCC43C)C2C1 (stereo not drawn) [Compound 1, 3-oxo-olean-12-en-28-oic acid] | > 563 µM |  |  |  |  | > 563 µM | > 563 µM |  |  |  | 18 µM | 70 µM | 281 µM | 35 µM | 4 µM | 70 µM | 4 to 70 µM | 140 µM | 2 to 70 µM | 141 to 281 µM | IC50 ([8]; Staphylococcus aureus): 141 µM; MIC ([8]; Staphylococcus aureus): 281 µM (≈ 128 µg/mL); growth inhibition ([8]; at up to 80 µM): ~ 15%
CC(=CCCC(C)C1CCC2(C)C3=CCC4C(C)(C)C(O)CCC4(C)C3CCC12C)C(=O)O (stereo not drawn) [Compound 3, 3α-hydroxytirucalla-7,24Z-dien-26-oic acid] |  | 141 µM (≈ 64.4 µg/mL) | 35 µM | 18 µM | 281 µM (≈ 128 µg/mL) | 35 µM | 70 µM (≈ 32 µg/mL) | 70 µM (≈ 32 µg/mL) | 70 µM (≈ 32 µg/mL) | 35 µM | 4 µM | 9 µM | 18 µM | 9 µM | 9 µM | 281 µM | 4 to 9 µM | 70 µM | 2 to 16 µM | ≥ 35 µM | IC50 ([8]; Staphylococcus aureus): 9 µM; MIC ([8]; Staphylococcus aureus): 18 µM (≈ 8.22 µg/mL); MIC [8]: 18 µM (≈ 8.22 µg/mL); MIC (S. aureus UAMS-929; [11]): 70 µM (≈ 32 µg/mL); IC90 ([4]; read-out: IC90 for quorum sensing inhibitory activity): 281 µM
